Test [1] in a line: Inhibitory constant towards dopamine D2 receptor was determined.
Test [2] is described as follows: Inhibitory constant towards 5-hydroxytryptamine 2C receptor (5-HT2C).
Test [3] can be described thus: Inhibitory constant towards 5-hydroxytryptamine 2A receptor (5-HT2A).
A short description of test [4]: Ratio of inhibitory constant for 5-hydroxytryptamine 2A receptor to that of dopamine receptor D2.

For the compound `O=C1CC(CCN2CCC3(CC2)NCNC3=O)Cc2ccccc21` (centres undefined), the “Log Ki” value in test [1], in test [2] and in test [3] was < -5 in each case.
Take `O=C1CC(CCN2CCN(c3ccccn3)CC2)Cc2ccccc21` (centres undefined): the “Log Ki” value is reported as < -5 in test [1], < -5 in test [2] and -6.54 in test [3].
As for `COc1ccc2c(c1)C(=O)CC(CCN1CCN(c3ccccn3)CC1)C2` (centres undefined), the “Log Ki” value in test [1] is reported as < -5; in test [2] it was -5.81; in test [3], -6.33.
With `O=C(CCCN1CCC(O)(c2ccc(Cl)cc2)CC1)c1ccc(F)cc1` [HALOPERIDOL], the “Log Ki” value in test [1] is listed as -9.22.
For the compound `O=C1CC(CCN2CCC(c3noc4cc(F)ccc34)CC2)Cc2ccccc21` (centres undefined), the “Log Ki” value in test [1] is on record as -5.98; in test [2] it was -7.06; in test [3] it was -8.29. Also, the Ratio in test [4] was determined as 1.38.
As for `CN1CCN(C2=Nc3cc(Cl)ccc3Nc3ccccc32)CC1` [CLOZAPINE], in test [1], the “Log Ki” value was -6.65.
With `COc1ccc2c(c1)C(=O)CC(CCN1CCC3(CC1)NC(=O)NC3=O)C2` (centres undefined), the “Log Ki” value in test [1] is < -5; in test [2], -6.9; in test [3], -5.98.
For the compound `COc1cc2c(cc1OC)C(=O)CC(CN1CCC(c3noc4cc(F)ccc34)CC1)C2` (centres undefined), the Ratio in test [4] was found to be 1.18. The “Log Ki” value in test [3] is -8.02.
Consider `COc1ccc2c(c1)C(=O)CC(CCN1CCN(c3ccccc3OC)CC1)C2` (centres undefined), for which the “Log Ki” value in test [1] is -6.55; in test [2] it was -5.72; in test [3], -6.65. The Ratio in test [4] stood at 1.01.
Regarding `COc1ccc2c(c1)CC(CN1CCC(c3noc4cc(F)ccc34)CC1)CC2=O` (centres undefined), the Ratio in test [4] was found to be 1.16. Further, the “Log Ki” value is reported as -5.79 in test [2] and -7.34 in test [3].
In the case of `O=C1NC(=O)C2(CCN(CCC3CC(=O)c4ccccc4C3)CC2)N1` (centres undefined), the “Log Ki” value in test [1] was < -5; in test [2], -7.05; in test [3] it was -6.15.
Regarding `COc1ccc2c(c1)C(=O)CC(CCN1CCC(c3noc4cc(F)ccc34)CC1)C2` (centres undefined), the results for the “Log Ki” value in test [1], in test [2] and in test [3] were -7.04, -6.89 and -8.23, respectively. In test [4], the Ratio came out at 1.17.
Consider `COc1ccc2c(c1)C(=O)CC(CCN1CCC3(CC1)NCNC3=O)C2` (centres undefined), for which the “Log Ki” value in test [1], in test [2] and in test [3] was < -5 each time.
Turning to `O=C1CC(CN2CCC(c3noc4cc(F)ccc34)CC2)Cc2ccccc21` (centres undefined), the Ratio in test [4] worked out at 1.18. Further, the results for the “Log Ki” value in test [2] and in test [3] were -6.89 and -8.57, respectively.
For `COc1ccccc1N1CCN(CCC2CC(=O)c3ccccc3C2)CC1` (centres undefined), the figures for the “Log Ki” value in test [1], in test [2] and in test [3] were -6.97, -6.35 and -6.59, respectively. For the same compound, the Ratio in test [4] was 0.95.

Values taken from ChEMBL document CHEMBL1139625, “Synthesis and binding affinity of novel 3-aminoethyl-1-tetralones, potential atypical antipsychotics” (Bioorg Med Chem Lett, 2005).
